Reference: US20240050385A1, “METHODS OF TREATING LEPTOMENINGEAL METASTASIS” (MEMORIAL SLOAN-KETTERING CANCER CENTER, priority 2020, published 2024)
“Also recorded” adds a separate entry of the source. Counter-ions that a name gives are not always drawn.

What was measured:
PC9-LeptoM cells = assay: In vivo leptomeningeal metastasis assay, PC9-LeptoM model, intracisternal chelator treatment; parameters: species or system mouse; conditions: for Median Survival: every 3 days; for [Fe]: total iron in CSF
From the text: (§1) FIG. 16A-16L. Iron chelator treatment reduces CSF iron. (A) Experimental scheme. Mice were inoculated with 2×10^3 cells intrathecally on day 0. Treatment with either vehicle, DFO, or D-pen was commenced on either day 1 or day 7 and continued every third day for a total of 7 doses. (B) Chelators delivered intrathecally. DFO, Deferoxamine. D-Pen, D-Penicillamine. (C-F) Intracellular iron (C and E) and viability (D and F) of PC9-LeptoM cells and MDA231-LeptoM cells after treatment with chelators in different concentrations (0 μM, 1 μM, 10 μM and 100 μM). n=3-4 per group in each of two independent experiments. * indicates p<0.05, ** indicates p<0.01, ***indicates p<0.001, **** indicates p<0.0001 (unpaired t test). Data represent mean±SEM. (G) Growth of PC9-LeptoM tumor after treatment indicated in (A). Left: in vivo BLI imaging in day 28 post-inoculation. n=8-10 per group in each of two independent experiments. Right: Representative BLI images. **** indicates p<0.0001. Data represent mean±SEM. (H) Kaplan-Meier survival curve from (C) and (E). p<0.0001. (I and J) Total iron concentration measured in CSF samples of mice with treatment of chelators in PC9-LeptoM Model (I) in MDA231-LeptoM model (J). NS=not significant, * indicates p<0.05, ** indicates p<0.01 (unpaired t test). Data represent mean±SEM. (K and L) Immune cell composition in CSF of LLC-LeptoM model with the treatment of vehicle, DFO, or D-pen at day 10. n=6 per group. NS=not significant, * indicates p<0.05, ** indicates p<0.01 (unpaired t test). Data represent mean±SEM.
In vivo leptomeningeal metastasis assays. To model leptomeningeal metastasis with a known consistent disease burden, 2×10^3 PC9, 2×10^3 MDA231, or 1×10^3 LLC Parental or LeptoM cells suspended in 10 μl PBS were injected into the cisterna magna of anesthetized mice. This procedure was tolerated well by the mice. Tumor progression was monitored by bioluminescence imaging (BLI) every 7 days after tumor cell inoculation, and mouse condition was monitored daily. When the tumor cells encompassed the entire CNS, or when neurological impairment became apparent, CSF was collected as described above, and mice were euthanized. Brains and spinal cord were collected in tissue fixative and embedded for preservation or histological and morphometric analysis. The role of LCN2 in cancer progression at multiple metastatic sites was also assessed. Tumor burden was monitored and quantified non-invasively after tumor cell inoculation either by BLI signal using the IVIS Spectrum Xenogen (Caliper Life Sciences) machine or with calibrated digital caliper. To track cancer cell growth after hematogenous dissemination, 5×10^4 PC9-LeptoM cells (shCtl, shLCN2-1 and shLCN2-2) suspended in 50 μL PBS were injected into the left heart ventricle. Tumor burden was monitored every 3 days with BLI. To measure cancer cell growth in the lungs, 2.5×10^4 PC9-LeptoM cells (diluted 1:1 in Growth factor-reduced Matrigel, #354230) were injected into the left lung through the rib cage. Tumor burden was monitored every 3 days with BLI. To assess cancer cell growth after subcutaneous inoculation, 1×10^6 PC9-LeptoM cells (diluted 1:1 in growth factor-reduced Matrigel) were injected under the flank skin of the mouse, and tumor burden was monitored every 3 days with calibrated digital caliper. To introduce cells into the mammary fat pad, 5×10^4 MDA-231-LeptoM cells (diluted 1:1 in growth factor-reduced Matrigel) were injected into the fourth inguinal mammary fat pad; tumor burden was measured every 3 days with calibrated digital caliper. To test a hypoxic environment other than the leptomeninges, 5×10^6 cells, diluted in 200 uL PBS, were injected intraperitoneally. Tumor burden was monitored 7 days after inoculation by BLI. Exact numbers for each experimental series are included in the relevant Figure legends.
Mouse CSF collection and Intrathecal drug administration. […]

LLC-LeptoM model = assay: Immune cell composition in CSF of LLC-LeptoM model (flow cytometry); type: in vivo, mouse; conditions: day 10, in words
From the text: as §1
Flow cytometry analysis and sorting. For cytometric bead assay, CSF from control mice or mice bearing LLC LeptoM cells was collected on day 14 as described above. Levels of cytokines were measured using LEGENDplex Mouse Inflammation Panel (13-plex; 740446, Biolegend) as recommended by manufacturer in technical duplicates. Data was processed using LEGENDPlex Software (Biolegend). For flow cytometric analysis of CSF and meningeal cells, mice were transcardially perfused though left ventricle with saline using standard procedures (16). Then, CSF was collected by cisternal tap as described above. Next, cranial vault was removed, brain was collected and basilar meninges were washed with PBS. Surface of the brain and ventricular spaces were washed with PBS. CSF, cavity and brain washouts were pooled and processed for staining. For analysis of peripheral leukocytes, blood was collected from deeply anesthesized mice using cardiac puncture. Spleen was collected from perfused animals, minced, and mechanically dissociated using GentleMACS (Miltenyi Biotec). […] Phagocytic activity and respiratory burst were analyzed using E. coli Phagocytosis Assay Kit (FITC conjugate, Cayman Chemicals, 601370) and CellRox Green Flow Cytometry (Thermo Fisher, C10492), as recommended. […]

Row | Structure (SMILES) | Median Survival (PC9-LeptoM cells; PC9-LeptoM model, intracisternal, start day not given) | [Fe] (PC9-LeptoM cells; PC9-LeptoM model, start day not given) | number (percentage) of CSF macrophages (LLC-LeptoM model) | numbers of neutrophils, T cells and monocytes in CSF (LLC-LeptoM model) | iron concentration in the CSF compared to control mice (PC9-LeptoM cells; PC9-LeptoM model, day 28, in words) | [Fe] (PC9-LeptoM cells; PC9-LeptoM model, late (day 7)) | Median Survival (PC9-LeptoM cells; PC9-LeptoM model, treatment begun late (day 7)) | dissemination of cancer cells over the spinal cord (PC9-LeptoM cells; PC9 mouse model, both early and late treatment groups, in words) | survival compared with vehicle control (PC9-LeptoM cells; PC9 mouse model, in words)
1 | CC(C)(S)[C@@H](N)C(=O)O [D-Pen, D-penicillamine] | 31.5 ± 3.5 days | 15.13 ± 4.21 µM | slightly reduced | not affected | – | – | – | – | –
2 | CC(=O)N(O)CCCCCNC(=O)CCC(=O)N(O)CCCCCNC(=O)CCC(=O)N(O)CCCCCN [DFO, Deferoxamine mesylate] | – | – | slightly reduced; also recorded: only mildly reduced | not affected | profoundly decreased; also recorded: reduced CSF iron concentration to that of non-LeptoM control mice | 4.74 ± 0.38 µM | 40 ± 5 days | impaired dissemination | conferred a survival benefit; also recorded: significant survival benefit
